Test results published in patent US7932389B2, “Octahydropyrrolo[2,3C]pyridine derivatives and pharmaceutical use thereof” (Merck Serono S.A., priority 2004, dated 2011).

Assays:
MMP-2 = target: T1, MMP-2 (Homo sapiens, UniProt P08253); test: MMP-2 enzyme inhibition assay, coumarin-labelled peptide substrate McaPLGLDpaAR; type: biochemical
T1 sequence (P08253 110-660): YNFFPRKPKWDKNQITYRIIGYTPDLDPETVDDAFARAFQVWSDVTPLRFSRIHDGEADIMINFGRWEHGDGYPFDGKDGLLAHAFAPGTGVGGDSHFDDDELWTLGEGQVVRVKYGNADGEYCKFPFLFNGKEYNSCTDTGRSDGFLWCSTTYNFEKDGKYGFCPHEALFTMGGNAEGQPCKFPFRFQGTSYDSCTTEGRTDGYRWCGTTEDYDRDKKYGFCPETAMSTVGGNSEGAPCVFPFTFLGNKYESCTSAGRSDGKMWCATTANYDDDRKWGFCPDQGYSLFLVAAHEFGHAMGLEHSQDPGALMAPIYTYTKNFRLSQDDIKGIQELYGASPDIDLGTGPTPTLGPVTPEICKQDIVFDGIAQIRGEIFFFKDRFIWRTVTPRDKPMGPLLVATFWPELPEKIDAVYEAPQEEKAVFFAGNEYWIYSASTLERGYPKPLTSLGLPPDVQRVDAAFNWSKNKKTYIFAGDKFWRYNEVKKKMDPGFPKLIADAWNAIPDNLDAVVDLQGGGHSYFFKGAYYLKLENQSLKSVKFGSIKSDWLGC
Procedure: (§1) Compounds of the invention were tested to assess their activities as inhibitors of MMP-1, MMP-2, MMP-9, MMP-14 and MMP-12.
(§2) Stock solutions were made up as follows: Assay Butter: 100 mM Tris-HCl pH 7.6 containing 100 mM NaCl, 10 mM CaCl2, and 0.05% Brij 35.
(§3) Substrate: 0.4 mM McaPLGLDpaAR (from Bachem) (0.437 mg/ml) stock solution in 100% DMSO (stored at −20° C.). Dilute to 8 μM in assay butter.
(§4) Test Compounds were prepared initially as 10 mM compound solution in 100% DMSO, diluted to 1 mM in 100% DMSO, then serially diluted 3-fold in 100% DMSO across columns 1-10 of a 96-well microtitre plate Assay concentration range, 100 μM (column 1) to 5.1 nM (column 10).
(§5) The assay was performed in a total volume of 100 μL per well in 96-well microtitre plates. Activated enzyme (20 μL) was added to the wells followed by 20 μL of assay butter. Appropriate concentrations of test compounds dissolved in 10 μL of DMSO were then added followed by 50 μL of McaPLGLDpaAR (8 μM, prepared by dilution of DMSO stock in assay butter). For each as say ten concentrations of test compound were examined in duplicate. Control wells lack either enzyme or test compound. The reactions were incubated at 37° C. for 2 hours. The fluorescence at 405 nm was measured immediately with an SLT Fluostar fluorometer (SLT Labinstruments GmbH, Grödig, Austria) using 320 nm excitation, without stopping the reaction.
(§6) The effect of the test compound was determined from the dose response curve generated by the 10 duplicate concentrations of inhibitor. The IC50 (the concentration of compound required to give a 50% decrease in enzyme activity) was obtained by fitting data to the equation, Y=a+((b−a)/(1+(c/X)^d)). (Y=inhibition achieved for a particular dose; X=the dose in nM; a=minimum y or zero % inhibition; b=maximum y or 100% inhibition; c=is the IC50; d=is the slope). The result was rounded to one significant figure.
Compounds of the invention were tested for inhibitory activity against collagenase (MMP-2) in an assay using a coumarin-labelled peptide substrate, (7-methoxycoumarin-4-yl)acetyl-Pro-Leu-Gly-Leu-(3-[2,4-dinitrophenyl]-L-2,3diaminopropionyl)-Ala-Arg-NH2 (Mca PLGLDpaAR) (Knight et al, 1992, above). The protocol for this assay was as described for the MMP-9 assay above.

[1] = target: Recombinant human 92 kDa gelatinase (MMP-9) (Homo sapiens, UniProt P14780); test: MMP-9 enzyme inhibition assay, coumarin-labeled peptide substrate McaPLGLDpaAR; type: biochemical
Chain of Recombinant human 92 kDa gelatinase (MMP-9) (P14780 107-707 limits assumed): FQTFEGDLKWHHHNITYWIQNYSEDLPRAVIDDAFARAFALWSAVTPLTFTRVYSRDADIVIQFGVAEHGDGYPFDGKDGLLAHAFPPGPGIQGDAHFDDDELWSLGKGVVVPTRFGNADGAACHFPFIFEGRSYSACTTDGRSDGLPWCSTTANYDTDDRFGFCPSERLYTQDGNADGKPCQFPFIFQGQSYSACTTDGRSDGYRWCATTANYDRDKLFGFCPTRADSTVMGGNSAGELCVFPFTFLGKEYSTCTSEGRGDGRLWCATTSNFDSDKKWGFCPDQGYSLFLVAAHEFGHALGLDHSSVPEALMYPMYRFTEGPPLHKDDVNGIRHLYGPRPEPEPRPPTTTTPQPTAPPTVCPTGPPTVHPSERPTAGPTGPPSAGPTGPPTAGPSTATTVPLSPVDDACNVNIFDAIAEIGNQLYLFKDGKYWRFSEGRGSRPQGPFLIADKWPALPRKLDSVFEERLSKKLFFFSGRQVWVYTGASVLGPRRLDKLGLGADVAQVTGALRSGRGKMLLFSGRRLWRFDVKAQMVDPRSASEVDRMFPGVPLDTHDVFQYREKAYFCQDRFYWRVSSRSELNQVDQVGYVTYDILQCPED
Procedure: as §1
Compounds of the invention were tested for inhibitory activity against 92 kDa gelatinase (MMP-9) in an assay using a coumarin-labeled peptide substrate, (7-methoxycoumarin-4-yl)acetyl-Pro-Leu-Gly-Leu-(3-[2,4-dinitrophenyl]-L-2,3diaminopropionyl)-Ala-Arg-NH2 (McaPLGLDpaAR) (Knight et al, FEBS Lett. 1992; 263-266).
as §2, §3
Enzyme: Recombinant human 92 kDa gelatinase (MMP-9; APMA (4-aminophenyl mercuric acetate)-activated if necessary) appropriately diluted in assay butter.
as §4, §5, §6

metalloelastase (MMP-12) = metalloelastase (MMP-12) (Homo sapiens, UniProt P39900); test: MMP-12 enzyme inhibition assay, coumarin-labelled peptide substrate McaPLGLDpaAR; type: biochemical
Chain of metalloelastase (MMP-12) (P39900 106-470): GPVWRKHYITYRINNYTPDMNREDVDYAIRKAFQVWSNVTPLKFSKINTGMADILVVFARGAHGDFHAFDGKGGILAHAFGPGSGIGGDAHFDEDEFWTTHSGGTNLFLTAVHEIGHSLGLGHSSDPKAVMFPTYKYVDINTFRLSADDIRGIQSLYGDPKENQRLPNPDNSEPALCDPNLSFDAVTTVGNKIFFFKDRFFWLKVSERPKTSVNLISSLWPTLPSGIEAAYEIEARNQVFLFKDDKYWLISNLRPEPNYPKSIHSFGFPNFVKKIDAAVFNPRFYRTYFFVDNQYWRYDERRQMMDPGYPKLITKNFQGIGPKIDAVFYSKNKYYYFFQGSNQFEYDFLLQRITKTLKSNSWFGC
Procedure: as §1, §2, §3, §4, §5, §6
Compounds of the invention were tested for inhibitory activity against metalloelastase (MMP-12) in an assay using a coumarin-labelled peptide substrate, (7-methoxycoumarin-4-yl)acetyl-Pro-Leu-Gly-Leu-(3-[2,4dinitrophenyl]-L-2,3-diaminopropionyl)-Ala-Arg-NH2 (McaPLGLDpaAR) (Knight et al, 1992, above). The protocol for this assay was as described for the MMP-9 assay above.

[2] = tested on: IL-2-induced peritoneal recruitment of lymphocytes; test: IL-2-induced peritoneal recruitment of lymphocytes; type: in vivo, C3H/HEN mice; conditions: subcutaneous, 15 min prior to IL-2, cells collected 24 h after IL-2, mice
Procedure: Administration of IL-2 intraperitoneally causes migration of lymphocytes into the intraperitoneal cavity. This is a model for the cellular migration that occurs during inflammation.
C3H/HEN mice (Elevage Janvier, France) were intraperitoneally injected with IL-2 (Serono Pharmaceutical Research Institute, 20 μg/kg, in saline).
Compounds of the invention were suspended in 0.5% carboxymethylcellulose (CMC)/0.25% tween-20 and were administered by s.c. or p.o. route (10 ml/kg) 15 min prior to administration of IL-2.
Twenty-four hours after administration of IL-2, peritoneal white blood cells were collected by 3 successive lavages of the peritoneal cavity with 5 ml phosphate buffered saline (PBS)-1 mM EDTA (+4° C.). The suspension was centrifuged (1700 g×10 min at +4° C.). The resulting pellet was suspended in 1 ml PBS-1 mM EDTA.
Lymphocytes were identified and counted using a Beckman/Coulter counter.
The animals were divided into 6 groups (6 mice each group):
Group 1: (baseline) received 0.5% CMC/0.25% tween-20 (vehicle of compound of the invention) and saline (vehicle of IL-2);
Group 2: (control IL-2) received 0.5% CMC/0.25% tween-20 and injection of IL-2;
Group 3: Experimental group (Compound of the invention Dose 1) received a compound of the invention and injection of IL-2; […]
Inhibition of lymphocyte recruitment was calculated as follows: […]

## COc1ccc(S(=O)(=O)N2[C@H](C(=O)NO)C[C@@H]3CCN(C(=O)OCc4ccccc4)C[C@@H]32)cc1 (relative stereo) [Example 18, benzyl rel-(2S,3aS,7aR)-2-[(hydroxyamino)carbonyl]-1-[(4-methoxyphenyl)sulfonyl]octahydro-6H-pyrrolo[2,3-c]pyridine-6-carboxylate]
MMP-2
  IC50: 490 nM
[1]
  IC50: 680 nM
Metalloelastase (MMP-12)
  IC50: 400 nM

## COc1ccc(S(=O)(=O)N2[C@H](C(=O)NO)C[C@@H]3CCN(C(=O)CCC4CCCC4)C[C@@H]32)cc1 (relative stereo) [Example 4, rel-2S,3aS,7aR)-6-(3-cyclopentylpropanoyl)-N-hydroxy-1-[(4-methoxyphenyl)sulfonyl]octahydro-1H-pyrrolo[2,3-c]pyridine-2-carboxamide]
MMP-2
  IC50: 640 nM
[1]
  IC50: 780 nM
Metalloelastase (MMP-12)
  IC50: 640 nM

## COc1ccc(S(=O)(=O)N2[C@H](C(=O)NO)C[C@@H]3CCN(C(=O)C4CCCC4)C[C@@H]32)cc1 (relative stereo) [Example 7, rel-2S,3aS,7aR)-6-cyclopentylcarbonyl)-N-hydroxy-1-[(4-methoxyphenyl)sulfonyl]octahydro-1H-pyrrolo[2,3-c]pyridine-2-carboxamide]
MMP-2
  IC50: 790 nM
[1]
  IC50: 1100 nM
Metalloelastase (MMP-12)
  IC50: 610 nM

## CCN(CC)C(=O)CN1CC[C@H]2C[C@@H](C(=O)NO)N(S(=O)(=O)c3ccc(OC)cc3)[C@H]2C1 (relative stereo) [Example 14, rel-(2S,3aS,7aR)-6-[2-(diethylamino)-2-oxoethyl]-N-hydroxy-1-[(4-methoxyphenyl)sulfonyl]octahydro-1H-pyrrolo[2,3-c]pyridine-2-carboxamide]
MMP-2
  IC50: 1200 nM
[1]
  IC50: 1500 nM
Metalloelastase (MMP-12)
  IC50: 930 nM

## COCCOC(=O)N1CC[C@H]2C[C@@H](C(=O)NO)N(S(=O)(=O)c3ccc(OC)cc3)[C@H]2C1 (relative stereo) [Example 5, 2-methoxyethyl rel-(2S,3aS,7aR)-2-[(hydroxyamino)carbonyl]-1-[(4-methoxyphenyl)sulfonyl]octahydro-6H-pyrrolo[2,3-c]pyridine-6-carboxylate]
MMP-2
  IC50: 850 nM
[1]
  IC50: 1500 nM
Metalloelastase (MMP-12)
  IC50: 980 nM

## CS(=O)(=O)N1CC[C@H]2C[C@@H](C(=O)NO)N(S(=O)(=O)c3ccc(Oc4ccncc4)cc3)[C@H]2C1 (relative stereo) [Example 11, rel-(2S,3aS,7aR)—N-hydroxy-6-(methylsulfonyl)-1-{[4-(pyridin-4-yloxy)phenyl]sulfonyl}octahydro-1H-pyrrolo[2,3-c]pyridine-2-carboxamide]
MMP-2
  IC50: 370 nM
[2]; 10 mg/kg
  % inhibition of IL-2-induced peritoneal recruitment of lymphocytes: 38%
[1]
  IC50: 870 nM
Metalloelastase (MMP-12)
  IC50: 80 nM

## COc1ccc(S(=O)(=O)N2[C@H](C(=O)NO)C[C@@H]3CCN(C(=O)c4ccccc4)C[C@@H]32)cc1 (relative stereo) [Example 1, rel-(2S,3aS,7aR)-6-benzoyl-N-hydroxy-1-[(4-methoxyphenyl)sulfonyl]octahydro-1H-pyrrolo[2,3-c]pyridine-2-carboxamide]
MMP-2
  IC50: 2100 nM
[1]
  IC50: 1700 nM
Metalloelastase (MMP-12)
  IC50: 1100 nM

## COc1ccc(S(=O)(=O)N2[C@H](C(=O)NO)C[C@@H]3CCN(C(=O)CCc4ccccc4)C[C@@H]32)cc1 (relative stereo) [Example 8, rel-(2S,3aS,7aR)—N-hydroxy-1-[(4-methoxyphenyl)sulfonyl]-6-(3-phenylpropanoyl)octahydro-1H-pyrrolo[2,3-c]pyridine-2-carboxamide]
MMP-2
  IC50: 50 nM
[2]; 3 mg/kg
  % inhibition of IL-2-induced peritoneal recruitment of lymphocytes: 33%
[1]
  IC50: 41 nM
Metalloelastase (MMP-12)
  IC50: 50 nM

## COc1ccc(S(=O)(=O)N2CC[C@H]3C[C@@H](C(=O)NO)N(S(=O)(=O)c4ccc(OC)cc4)[C@H]3C2)cc1 (relative stereo) [Example 10, rel-(2S,3aS,7aR)—N-hydroxy-1,6-bis[(4-methoxyphenyl)sulfonyl]octahydro-1H-pyrrolo[2,3-c]pyridine-2-carboxamide]
MMP-2
  IC50: 1600 nM
[1]
  IC50: 1800 nM
Metalloelastase (MMP-12)
  IC50: 950 nM

## COc1ccc(S(=O)(=O)N2[C@H](C(=O)NO)C[C@@H]3CCN(C(=O)c4ccc(-c5ccccc5)cc4)C[C@@H]32)cc1 (relative stereo) [Example 12, rel-(2S,3aS,7aR)-6-(biphenyl-4-ylcarbonyl)-N-hydroxy-1-[(4-methoxyphenyl)sulfonyl]octahydro-1H-pyrrolo[2,3-c]pyridine-2-carboxamide]
MMP-2
  IC50: 1700 nM
[1]
  IC50: 1600 nM
Metalloelastase (MMP-12)
  IC50: 1200 nM

## COc1ccc(S(=O)(=O)N2[C@H](C(=O)NO)C[C@@H]3CCN(C(=O)Nc4ccccc4)C[C@@H]32)cc1 (relative stereo) [Example 16, rel-(2S,3aS,7aR)—N^2-hydroxy-1-[(4-methoxyphenyl)sulfonyl]-N^6-phenyloctahydro-6H-pyrrolo[2,3-c]pyridine-2,6-dicarboxamide]
MMP-2
  IC50: 320 nM
[1]
  IC50: 430 nM
Metalloelastase (MMP-12)
  IC50: 340 nM

## COc1ccc(S(=O)(=O)N2[C@H](C(=O)NO)C[C@@H]3CCN(C(C)=O)C[C@@H]32)cc1 (relative stereo) [Example 2, rel-(2S,3aS,7aR)-6-acetyl-N-hydroxy-1-[(4-methoxyphenyl)sulfonyl]octahydro-1H-pyrrolo[2,3-c]pyridine-2-carboxamide]
MMP-2
  IC50: 95 nM
[1]
  IC50: 150 nM
Metalloelastase (MMP-12)
  IC50: 130 nM
